# Measured values published in patent publication US20150258105A1, “METHODS FOR ACUTE AND LONG-TERM TREATMENT OF ALCOHOL DEPENDENCE” (DemeRx, Inc., priority 2014, published 2015).
# “Also recorded” adds a separate entry of the source.
# How the values were obtained:
# [1] = tested on: opioid-dependent participants; test: Opiate withdrawal scales (COWS, SOWS, OOWS) in opioid-dependent participants; format: in vivo, human; conditions: first six hours following dosing
# Experimental: Patients were evaluated based on the Clinical Opiate Withdrawal Scale (COWS), Subjective Opiate Withdrawal Scale (SOWS), and Objective Opiate Withdrawal Scale (OOWS) scoring systems over the period of time between administration of noribogaine (or placebo) until resumption of OST. These scales are outlined in Guidelines for the Psychosocially Assisted Pharmacological Treatment of Opioid Dependence, World Health Organization, Geneva (2009), Annex 10, which is incorporated herein by reference in its entirety. The scales measure the intensity of withdrawal symptoms, based on clinical, subjective, and objective indicia.
# [2] = Pharmacokinetics in opioid-dependent patients, Phase IB study (serum noribogaine); conditions: 60, 120, 180 mg cohorts
# [3] = tested on: healthy, drug-free male volunteers; test: Safety and tolerability of noribogaine in healthy humans (adverse events, vital signs, ECG); format: in vivo, human
# Experimental: (§1) Pulse oximetry and capnography data were collected continuously using a GE Carescape B650 monitoring system from 2 hours prior to dosing and until six hours after dosing, and thereafter at 12, 24, 48 and 72 hours post-dosing. […] Pupillary miosis was assessed by pupillometry.
# (§2) Safety and tolerability of noribogaine were tested in the group of volunteers from Example 1. […] Safety evaluations included clinical monitoring, recording of adverse events (AEs), safety laboratory tests, vital signs, ECG telemetry from −2 h to 6 h after dosing, and 12-lead electrocardiograms (ECGs) up to 216 hours post-dosing.
# [4] = tested on: healthy, drug-free male volunteers; test: Pupillometry (pupillary miosis) in healthy volunteers; format: in vivo, human
# Experimental: as §1
# Summary statistics (means, standard deviations, and coefficients of variation) were determined for each dose group for safety laboratory test data, ECG and pharmacokinetic parameters, and pharmacodynamic variables. Categorical variables were analysed using counts and percentages. Dose-proportionality of AUC and Cmax was assessed using linear regression. The effect of dose on pharmacodynamic parameter values over time was assessed using two-factor analysis of variance (ANOVA). Pairwise comparisons (with Tukey-Kramer adjustment) between each dose group to the placebo were conducted at each time point using the least squares estimates obtained from the ANOVA, using SAS Proc Mixed (SAS ver 6.0).
# [5] = Pharmacokinetics of noribogaine in healthy volunteers, ascending single oral dose (plasma, LCMSMS); conditions: for CL/F / Tmax / AUC0-216 / AUC0-∞ / Cmax / t1/2: fasted healthy volunteers, mean (SD), n = 6; for mean AUC/24 hr / mean AUC/24: fasting conditions
# [6] = tested on: opioid-dependent participants; test: QT interval prolongation (ΔQTc1) in opioid-dependent participants; format: in vivo, human; conditions: 60, 120, 180 mg, first 24 hours post administration
# Experimental: Patients' QT intervals were evaluated at regular time points throughout the study.
# [7] = tested on: opioid-dependent participants; test: Time to resumption of opioid substitution treatment (OST) in opioid-dependent participants; format: in vivo, human; conditions: single 180 mg dose
# [8] = tested on: opioid-dependent participants; test: Treatment emergent adverse events in opioid-dependent participants, single dose
# [9] = tested on: healthy, drug-free male volunteers; test: Cold pressor test (analgesic effect) in healthy volunteers; format: in vivo, human
# Experimental: Analgesic effect was assessed based on duration of hand immersion in ice water and on visual analog scale (VAS) pain scores upon hand removal from the water bath.
# as §2
# [10] = tested on: patients dependent on alcohol; test: Effect of noribogaine on withdrawal from alcohol in humans; format: in vivo, human; conditions: single oral dose of 2 mg/kg, at least 2 hours after last alcohol use; self-evaluation and clinical observation
# Experimental: Six patients are orally administered a single dose of 2 mg/kg noribogaine, and three patients receive placebo in a randomized, placebo-controlled, double-blind trial. All patients are dependent on alcohol. Treatment is administered at least 2 hours after last alcohol use.
# [11] = after adjusting for baseline differences, p>0.9
# [12] = 30 mg single oral noribogaine dose, plasma
# [13] = 60 mg single oral noribogaine dose, plasma
# [14] = across dose groups, healthy volunteers, plasma
smiles,measurement,setting,value
CC[C@H]1CC2C[C@H]3c4[nH]c5ccc(O)cc5c4CCN(C2)C13 [noribogaine],"withdrawal symptoms (COWS, OOWS, SOWS scores)","[1]; 120 mg, prior to resumption of OST",fewer withdrawal symptoms than the other patients
same,"withdrawal symptoms versus placebo (COWS, OOWS, SOWS scores)","[1]; 60, 120, 180 mg",placebo generally experienced more withdrawal symptoms than patients who were administered noribogaine
same,dose dependence of maximum serum concentration (Cmax),[2],increased in a dose-dependent manner
same,number of adverse events reported,"[3]; 3 mg dose group, by two subjects",five
same,number of adverse events reported,"[3]; 10 mg dose group, by a single subject",one
same,number of adverse events reported,"[3]; 30 mg dose group, by a single subject",one
same,"oximetry, capnography, respiratory rate","[3]; 3-60 mg, healthy volunteers","no changes in oximetry or capnography, or changes in respiratory rate"
same,vital signs and safety laboratory tests,"[3]; 3-60 mg, healthy volunteers",no changes in vital signs or safety laboratory tests of note
same,QTcF values >500 msec,"[3]; 3-60 mg, healthy volunteers, ECGs up to 216 hours post-dosing",no QTcF values >500 msec at any time
same,"Adverse events, Mild","[3]; Dose 3 mg, healthy volunteers",Dizziness; also recorded: Epistaxis; also recorded: Headache; also recorded: Back pain
same,"Adverse events, Moderate","[3]; Dose 3 mg, healthy volunteers",Headache
same,"Adverse events, Mild","[3]; Dose 10 mg, healthy volunteers",Headache
same,"Adverse events, Mild","[3]; Dose 30 mg, healthy volunteers",Headache
same,intensity of adverse events,"[3]; all dose groups, all resolved prior to study completion",mild-moderate intensity
same,single increase in QTcF,"[3]; one subject dosed with 10 mg, at 24 hours post-dosing",> 60 ms
same,pupillary constriction,"[4]; 3-60 mg single oral doses, dark-adapted pupil diameter up to 216 hours",no evidence of pupillary constriction
same,"pupil diameter, each dose group versus placebo (ANOVA)",[4]; [11],no statistically significant differences
same,CL/F,"[5]; 3 mg single oral noribogaine dose, plasma",41.4 (7.0) L/h
same,CL/F,"[5]; 10 mg single oral noribogaine dose, plasma",42.3 (12.0) L/h
same,CL/F,[5]; [12],46.9 (16.4) L/h
same,Tmax,"[5]; 30 mg single oral noribogaine dose, plasma, listed as noribogaine free base",1.75 h
same,CL/F,[5]; [13],34.0 (11.4) L/h
same,dose dependence of Cmax and AUC,"[5]; 3-60 mg single oral doses, healthy volunteers",increased linearly with dose
same,Volume of distribution,"[5]; across dose groups (3-60 mg), healthy volunteers",1417 to 3086 L
same,time of peak concentrations after oral noribogaine dosing,[5]; [14],2 to 3 h
same,absorption after oral dosing,[5]; healthy volunteers,rapidly absorbed
same,mean AUC/24 hr,"[5]; single dose of 3 mg noribogaine free base, healthy volunteers",3.1 ng/mL
same,mean AUC/24 hr,"[5]; single dose of 10 mg noribogaine free base, healthy volunteers",10.6 ng/mL
same,mean AUC/24,"[5]; single dose of 30 mg noribogaine free base, healthy volunteers",29.2 ng/mL
same,mean AUC/24,"[5]; single dose of 60 mg noribogaine free base, healthy volunteers",61 ng/mL
same,QT interval prolongation (ΔQTc1),[6],dose-dependent increase in QT interval prolongation
same,Time to resumption of OST compared with untreated patients and 60 mg,[7],"still longer than untreated patients (7 hours, not shown) or those administered 60 mg noribogaine"
same,AE: Catheter Site Infection,"[8]; 60 mg single dose, N = 6",0
same,AE: Catheter Site Pain,"[8]; 60 mg single dose, N = 6",0
same,AE: Catheter Site Related Reaction,"[8]; 60 mg single dose, N = 6",0
same,AE: Cellulitis,"[8]; 60 mg single dose, N = 6",0
same,AE: Diarrhoea,"[8]; 60 mg single dose, N = 6",0
same,AE: Dry Mouth,"[8]; 60 mg single dose, N = 6",0
same,AE: Ear and Labyrinth Disorders,"[8]; 60 mg single dose, N = 6",0
same,AE: Epistaxis,"[8]; 60 mg single dose, N = 6",0
same,AE: Euphoric Mood,"[8]; 60 mg single dose, N = 6",0
same,AE: General Disorders and Administration Site Conditions,"[8]; 60 mg single dose, N = 6",0
same,AE: Hyperaesthesia,"[8]; 60 mg single dose, N = 6",0
same,AE: Infections and Infestations,"[8]; 60 mg single dose, N = 6",0
same,AE: Limb Discomfort,"[8]; 60 mg single dose, N = 6",0
same,AE: Malaise,"[8]; 60 mg single dose, N = 6",0
same,AE: Nausea,"[8]; 60 mg single dose, N = 6",0
same,AE: Oropharyngeal Pain,"[8]; 60 mg single dose, N = 6",0
same,AE: Pseudoparalysis,"[8]; 60 mg single dose, N = 6",0
same,"AE: Respiratory, Thoracic and Mediastinal Disorders","[8]; 60 mg single dose, N = 6",0
same,AE: Rhinorrhoea,"[8]; 60 mg single dose, N = 6",0
same,AE: Skin Discomfort,"[8]; 60 mg single dose, N = 6",0
same,AE: Skin Irritation,"[8]; 60 mg single dose, N = 6",0
same,AE: Skin and Subcutaneous Tissue Disorders,"[8]; 60 mg single dose, N = 6",0
same,AE: Somnoience,"[8]; 60 mg single dose, N = 6",0
same,AE: Tinnitus,"[8]; 60 mg single dose, N = 6",0
same,AE: Tremor,"[8]; 60 mg single dose, N = 6",0
same,AE: Urinary Tract Infection,"[8]; 60 mg single dose, N = 6",0
same,AE: Vomiting,"[8]; 60 mg single dose, N = 6",0
same,frequency of headaches,[8]; 60 mg treatment group,frequent
same,frequency of headaches,[8]; 120 mg dose group,attenuated
same,AE: Back Pain,"[8]; 120 mg single dose, N = 6",0
same,AE: Catheter Site Infection,"[8]; 120 mg single dose, N = 6",0
same,AE: Catheter Site Related Reaction,"[8]; 120 mg single dose, N = 6",0
same,AE: Depressed Mood,"[8]; 120 mg single dose, N = 6",0
same,AE: Dry Eye,"[8]; 120 mg single dose, N = 6",0
same,AE: Dyspepsia,"[8]; 120 mg single dose, N = 6",0
same,AE: Euphoric Mood,"[8]; 120 mg single dose, N = 6",0
same,AE: Limb Discomfort,"[8]; 120 mg single dose, N = 6",0
same,AE: Malaise,"[8]; 120 mg single dose, N = 6",0
same,AE: Musculoskeletal and Connective Tissue Disorders,"[8]; 120 mg single dose, N = 6",0
same,AE: Psychiatric Disorders,"[8]; 120 mg single dose, N = 6",0
same,AE: Somnoience,"[8]; 120 mg single dose, N = 6",0
same,AE: Urinary Tract Infection,"[8]; 120 mg single dose, N = 6",0
same,frequency of headaches,[8]; 180 mg dose group,attenuated
same,AE: Catheter Site Infection,"[8]; 180 mg single dose, N = 6",0
same,AE: Catheter Site Pain,"[8]; 180 mg single dose, N = 6",0
same,AE: Depressed Mood,"[8]; 180 mg single dose, N = 6",0
same,AE: Diarrhoea,"[8]; 180 mg single dose, N = 6",0
same,AE: Dry Eye,"[8]; 180 mg single dose, N = 6",0
same,AE: Dyspepsia,"[8]; 180 mg single dose, N = 6",0
same,AE: Ear and Labyrinth Disorders,"[8]; 180 mg single dose, N = 6",0
same,AE: Epistaxis,"[8]; 180 mg single dose, N = 6",0
same,AE: Euphoric Mood,"[8]; 180 mg single dose, N = 6",0
same,AE: Hyperaesthesia,"[8]; 180 mg single dose, N = 6",0
same,AE: Malaise,"[8]; 180 mg single dose, N = 6",0
same,AE: Oropharyngeal Pain,"[8]; 180 mg single dose, N = 6",0
same,AE: Pseudoparalysis,"[8]; 180 mg single dose, N = 6",0
same,AE: Psychiatric Disorders,"[8]; 180 mg single dose, N = 6",0
same,"AE: Respiratory, Thoracic and Mediastinal Disorders","[8]; 180 mg single dose, N = 6",0
same,AE: Rhinorrhoea,"[8]; 180 mg single dose, N = 6",0
same,AE: Skin Discomfort,"[8]; 180 mg single dose, N = 6",0
same,AE: Skin Irritation,"[8]; 180 mg single dose, N = 6",0
same,AE: Skin and Subcutaneous Tissue Disorders,"[8]; 180 mg single dose, N = 6",0
same,AE: Somnoience,"[8]; 180 mg single dose, N = 6",0
same,AE: Tinnitus,"[8]; 180 mg single dose, N = 6",0
same,AE: Tremor,"[8]; 180 mg single dose, N = 6",0
same,hallucinatory effects,"[8]; 60, 120 or 180 mg single dose, opioid-dependent participants",no hallucinatory effects
same,analgesic effect in the cold pressor test,"[9]; 3-60 mg single oral doses, 1° C. water",no analgesic effect
same,"VAS pain scores, each dose group versus placebo (ANOVA)","[9]; after adjusting for baseline differences, p=0.17",no statistically significant differences
same,"duration of hand immersion, each dose group versus placebo (ANOVA)",[9]; [11],no statistically significant differences
same,symptoms of alcohol withdrawal compared to placebo,[10],fewer and/or less severe symptoms of alcohol withdrawal
"CC[C@H]1C[C@@H]2C[C@H]3c4[nH]c5ccc(OC6OC(C(=O)O)C(O)C(O)C6O)cc5c4CCN(C2)[C@@H]13 (some centres unmarked) [Noribogaine glucuronide, noribogaine glucuronide]",AUC0-216,[5]; [12],25.7 (9.1) ng · hr/ml
same,AUC0-∞,[5]; [12],25.8 (9.3) ng · hr/ml
same,Cmax,[5]; [12],1.8 (0.6) ng/ml
same,Tmax,[5]; [12],3.0 (0.6) hr
same,t1/2,[5]; [12],20.6 (4.9) hr
same,AUC0-216,[5]; [13],65.0 (21.5) ng · hr/ml
same,AUC0-∞,[5]; [13],67.1 (21.9) ng · hr/ml
same,Cmax,[5]; [13],4.1 (1.2) ng/ml
same,Tmax,[5]; [13],3.8 (1.2) hr
same,t1/2,[5]; [13],23.1 (3.0) hr
same,mean half-life estimates,[5]; [14],21 to 23 h
same,time of peak concentrations after oral noribogaine dosing,[5]; [14],3 to 4 h
same,time by which detected in plasma of all subjects,"[5]; after 30 mg or 60 mg oral noribogaine, healthy volunteers",≤ 0.75 h
same,proportion of noribogaine glucuronide Cmax and AUC relative to noribogaine,[5]; both dose groups (30 mg and 60 mg),3-4%
